Test results reported in PubChem BioAssay (NCI).
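Assay format: 96-well plates, 48-hour exposure. At the TGI there is no net growth.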 Where a SMILES comes first, the peptide text is derived from it. The star is where a group is joined. Boc = CC(C)(C)OC(=O)*; Bn = c1ccc(C*)cc1

Tests used:
Test in all cases: DTP human tumour cell line panel, 48 h
A549 NSCLC = tested on: A549 NSCLC
RPMI-8226 leukemia = tested on: RPMI-8226 leukemia
U251 CNS = tested on: U251 CNS
SR leukemia = tested on: SR leukemia
SNB-75 CNS = tested on: SNB-75 CNS
KM12 colon = tested on: KM12 colon

Row | Structure (SMILES) | TGI (A549 NSCLC) [µM] | TGI (RPMI-8226 leukemia) [µM] | TGI (U251 CNS) [µM] | TGI (SR leukemia) [µM] | TGI (SNB-75 CNS) [µM] | TGI (KM12 colon) [µM]
1 | O=C1COc2cccnc2N1CCCCO | > 100 | > 100 | > 100 | > 100 | > 100 | > 100
2 | CN=C(n1ccnc1)n1ccnc1 | > 100 | > 100 | > 100 | > 100 | > 100 | > 100
3 | C/C=C/C(CC(O)(C(F)(F)F)C(F)(F)F)=N/NC(N)=S | > 10 | > 10 | > 10 | > 10 | > 10 | > 10
4 | O=C(Nc1ccccc1)c1cc(S(=O)(=O)NC2=NC(c3ccccc3)c3cc(Cl)ccc3N2)c(SSc2cc(Cl)c(C(=O)Nc3ccccc3)cc2S(=O)(=O)NC2=NC(c3ccccc3)c3cc(Cl)ccc3N2)cc1Cl (configuration not stated) | > 100 | > 100 | > 100 | > 26.7 | > 100 | > 100
5 | COC(=O)C(CC(C)C)NC(=O)C(C)NC(=O)C(Cc1ccc(OCc2ccccc2)cc1)NC(=O)C(COCc1ccccc1)NC(=O)OC(C)(C)C (configuration not stated) (Boc-S(Bn)Y(Bn)AL-OMe; configuration not given here) | > 100 | > 100 | > 100 | > 100 | > 100 | > 100
6 | O=C1c2ccccc2C(=O)c2c(NCC(O)CO)ccc(NCC(O)CO)c21 (configuration not stated) | > 100 | > 100 | > 100 | > 100 | > 100 | 
7 | Cc1ccc(-n2cnc(C(=N)C#N)c2N)cc1 | > 100 | > 100 | > 100 | > 100 | > 100 | > 100
8 | COc1cccc(C(=O)Oc2ccc(OS(=O)(=O)c3ccc(C)cc3)cc2)c1C#N | > 100 | > 100 | > 100 | > 100 | > 100 | > 100
9 | CCCNC(=O)NNC(=O)c1c[nH]c2nc(C)ccc2c1=O | > 100 | > 100 | > 100 |  |  | > 100
10 | Cc1[nH]c(=O)nc2nc3ccc(Cl)cc3c(NCCNCCO)c12 | 33 | > 100 | 21.2 | > 100 |  | 23
11 | CC1=NN(c2nc(N)nc(/C(C#N)=C\c3ccc([N+](=O)[O-])s3)n2)C(C)(C)C1 | 16.5 | 0.0872 | 0.221 | 0.152 | 1.93 | 1.85
12 | C[C@H]1[C@H]2[C@H]3CC[C@@H]4[C@@]5(C)CC[C@H](O)C(C)(C)[C@@H]5CC[C@@]4(C)[C@]3(C)C[C@H](O)[C@@]2(C)C[C@H]2O[C@]21C | 41.7 | > 100 | 33.7 |  |  | 46.1
13 | CO/N=C(\C)c1ccc(Nc2nc3ccccc3c3occc23)cc1 | 39 | 43.4 | 35.6 | 58.6 |  | 36.4
14 | CC1(C)C(C#N)C1C1=C(N2CCOCC2)[C@]2(C)C(OC(=O)c3ccccc3)CC[C@@H]2C1 (some centres not stated) | > 100 |  | > 100 | > 100 | > 100 | > 100
15 | O=[N+]([O-])c1ccc(CN(CCCl)OCCCl)cc1 | > 100 | > 100 | > 100 | > 100 | > 100 | > 100
16 | C=CCCON(C(=O)OC(C)(C)C)C(C)(C)C | > 100 | > 100 | > 100 |  | > 100 | > 100
17 | COC(=O)C1=C(OC(=O)/C(=C/c2ccc(Cl)cc2)c2ccc(Cl)cc2)C(C(=O)OC)[C@@]2(O)[C@@H](C(=O)OC)[C@H](C)C[C@@H]1[C@@H]2C(=O)OC (some centres not stated) | > 87.7 | > 100 | > 100 | > 100 | > 100 | > 100
18 | CN1CCc2c([nH]c3ccccc23)C1 | > 100 | > 100 | > 100 | > 100 | > 100 | > 100
19 | CC1(C)OC(C(=O)Nc2cc3c4ccccc4ccc3c3ccccc23)C(C(=O)N2CCCCC2)O1 (configuration not stated) | > 100 | > 43.2 | > 100 |  | > 100 | > 100
20 | CC(=O)Nc1ccc(N=Nc2c(O)c(S(=O)(=O)O)cc3cc(S(=O)(=O)O)ccc23)cc1 | > 100 | > 100 | > 100 |  | > 100 | > 100
21 | CC(=O)OC(OC(C)=O)c1ccc2ccc3cccc4ccc1c2c34 | > 100 | > 100 | 41.8 | > 100 | 41.6 | > 100
22 | Nc1ccc2c(c1)C(=O)N1CCC[C@H]1C(=O)N2 | > 100 | > 100 | > 100 | > 100 | > 100 | > 100
23 | CC1=C(C)CC2C(=O)N(c3cc(C(C)(C)C)ccc3C(C)(C)C)C(=O)C2C1 (configuration not stated) | > 100 | > 100 | > 100 | > 100 | 56.2 | > 100
24 | O=c1[nH]nnc2c1sc1ncccc12 | > 100 |  | > 100 | > 100 | > 100 | > 100
25 | CC1CC(OP(=O)(OCc2ccccc2)OCc2ccccc2)[C@@H](OCc2ccccc2)C(OCc2ccccc2)C1OCc1ccccc1 (some centres not stated) | > 100 | > 100 | > 100 | > 100 | > 100 | 
26 | C[n+]1c2ccc(Cl)cc2nc2cc(-c3ccccc3)ccc21 | 47.7 |  | > 100 | 9.14 | 80.1 | 33.7
27 | CCOC1(OCC)C2C=CC1C(COS(=O)(=O)c1ccc(C)cc1)C2COS(=O)(=O)c1ccc(C)cc1 (configuration not stated) | > 100 |  | > 100 | 58.6 | > 100 | > 100
28 | CCCCCCNc1n[nH]c(=O)c2c1nnn2Cc1ccccc1 | > 100 | > 100 | > 100 | > 100 |  | > 100
29 | N#Cc1n[nH]n(-c2ccc(Br)cc2)c1=O | > 100 | > 100 | > 100 |  | > 100 | > 100
30 | O=C(O)C(O)C(O)C(O)C(O)c1nc2ccccc2s1 (configuration not stated) | 39.3 | 68.8 | 29.5 |  | 34.7 | 71.1
